Some test systems named below: KM20L2 colon; HOP-18 NSCLC; HCC-2998 colon; CAKI-1 renal; DLD-1 colon; DMS 273 small cell lung; DMS 114 small cell lung; SNB-78 CNS; LXFL 529 NSCLC; M19-MEL melanoma; RXF-631 renal; XF 498 CNS; OVCAR-3 ovarian.
Common to all, as to assay: growth of human tumour cells (NCI), 48 h

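How tested: cells in 96-well plates exposed to compound for 48 hours at five concentrations. TGI: concentration producing complete growth inhibition.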

The results in this text go back to PubChem BioAssay (NCI).

For the molecule `Cc1nc(N)c(-c2ccccc2)s1`, the TGI in the assay on KM20L2 colon, with HOP-18 NSCLC, with HCC-2998 colon, in the assay with CAKI-1 renal, with DLD-1 colon and with DMS 273 small cell lung was over 100 µM each time. Moreover, the TGI in the assay on DMS 114 small cell lung, with SNB-78 CNS, in the assay with LXFL 529 NSCLC, in the assay on M19-MEL melanoma, with RXF-631 renal and in the assay on XF 498 CNS was over 100 µM throughout. Further, the TGI in the assay with OVCAR-3 ovarian was over 100 µM.

In the case of `C[C@@H]1O[C@]2(O)[C@@H]3CCCN3S(=O)(=O)CCN2C1=O`, the TGI in the assay with KM20L2 colon, in the assay on HOP-18 NSCLC, in the assay with HCC-2998 colon, with CAKI-1 renal, with DLD-1 colon and with SNB-78 CNS was over 100 µM throughout. Further, the TGI with LXFL 529 NSCLC, in the assay on M19-MEL melanoma, in the assay with RXF-631 renal, with XF 498 CNS and in the assay on OVCAR-3 ovarian was over 100 µM in each case.

On to `C/C(=N\NC(=S)NC(CCC(=O)O)C(=O)O)c1cnccn1` (centres undefined), for which the TGI in the assay with KM20L2 colon, with HOP-18 NSCLC, in the assay with HCC-2998 colon, in the assay on DLD-1 colon, with DMS 114 small cell lung and with SNB-78 CNS was over 100 µM in each case. For the same molecule, the TGI with LXFL 529 NSCLC, in the assay with M19-MEL melanoma, in the assay with RXF-631 renal, in the assay on XF 498 CNS and in the assay on OVCAR-3 ovarian was over 100 µM in each case.

`COc1cc(C2C(C(=O)Nc3ccc([N+](=O)[O-])cc3)=C(C)NC(C)=C2C(=O)Nc2ccc([N+](=O)[O-])cc2)ccc1O`: the TGI in the assay with KM20L2 colon was 34.7 µM; with HOP-18 NSCLC, over 74.2 µM; in the assay on HCC-2998 colon, 40.3 µM; in the assay with CAKI-1 renal it was over 86.6 µM; with DLD-1 colon, over 68.6 µM; in the assay on DMS 273 small cell lung, 53.3 µM. Also, the TGI was over 74.5 µM in the assay on DMS 114 small cell lung; over 100 µM in the assay on SNB-78 CNS; 64 µM with LXFL 529 NSCLC; 43.3 µM in the assay with M19-MEL melanoma; over 100 µM in the assay with RXF-631 renal; 69.1 µM in the assay on XF 498 CNS. Further, in the assay with OVCAR-3 ovarian, the TGI was found to be 55.7 µM.

With `CCOC(=O)CCC(NC(=O)c1ccc(N=Cc2nc3ccccc3nc2-c2ccccc2)cc1)C(=O)OCC` (centres undefined), the TGI in the assay with KM20L2 colon, with HOP-18 NSCLC, in the assay on HCC-2998 colon, in the assay on CAKI-1 renal, in the assay with DLD-1 colon and with DMS 273 small cell lung was over 100 µM each time. In addition, the TGI with DMS 114 small cell lung, with SNB-78 CNS, in the assay with LXFL 529 NSCLC, with RXF-631 renal, with XF 498 CNS and in the assay with OVCAR-3 ovarian was over 100 µM throughout.

With `N#C/C(=C\c1cc(O)ccc1O)C(N)=O`, the TGI with KM20L2 colon is over 100 µM; with HCC-2998 colon, over 100 µM; with CAKI-1 renal it was over 100 µM; in the assay on DLD-1 colon, over 100 µM; in the assay on DMS 273 small cell lung it was over 100 µM; with DMS 114 small cell lung, 70.9 µM. The TGI in the assay with SNB-78 CNS, in the assay on LXFL 529 NSCLC, with M19-MEL melanoma, in the assay on RXF-631 renal, with XF 498 CNS and with OVCAR-3 ovarian was over 100 µM in each case.

Regarding `CCN(CC)CCC1(C2CCCCC2)CCC(=O)NC1=O` (centres undefined), the TGI with KM20L2 colon, in the assay with HCC-2998 colon, with CAKI-1 renal, in the assay on DLD-1 colon, in the assay with DMS 273 small cell lung and in the assay with DMS 114 small cell lung was over 100 µM each time. For the same molecule, the TGI in the assay with SNB-78 CNS, in the assay with LXFL 529 NSCLC, in the assay on M19-MEL melanoma, in the assay on RXF-631 renal, with XF 498 CNS and with OVCAR-3 ovarian was over 100 µM each time.

Turning to `C#CCNC(=O)NCCCCC(NC(C)=O)C(=O)NCc1ccccc1` (centres undefined), the TGI in the assay on KM20L2 colon, in the assay on HOP-18 NSCLC, in the assay with HCC-2998 colon, in the assay with CAKI-1 renal, with DLD-1 colon and in the assay with DMS 114 small cell lung was over 100 µM throughout. For the same molecule, the TGI in the assay on SNB-78 CNS, in the assay with LXFL 529 NSCLC, with M19-MEL melanoma, with RXF-631 renal, with XF 498 CNS and with OVCAR-3 ovarian was over 100 µM in each case.

Consider `COc1ccccc1-n1c(NN)nc2ccc(Br)cc2c1=O`, for which the TGI was over 100 µM in the assay on KM20L2 colon; 61.5 µM with HOP-18 NSCLC; over 100 µM in the assay on HCC-2998 colon; over 100 µM in the assay with CAKI-1 renal; over 100 µM in the assay with DLD-1 colon; over 100 µM with DMS 273 small cell lung. For the same molecule, the TGI in the assay on DMS 114 small cell lung was over 100 µM; in the assay with SNB-78 CNS, over 100 µM; in the assay with LXFL 529 NSCLC, over 100 µM; in the assay with M19-MEL melanoma it was over 100 µM; in the assay with RXF-631 renal, over 100 µM; with XF 498 CNS it was 92.1 µM. The TGI with OVCAR-3 ovarian was over 100 µM.
